Data on 13 molecules can be found in patent publication US8226966B2, “Fungicide N-6-membered fused (hetero) aryl-methylene-N-cycloalkyl carboxamide derivatives” (Bayer Cropscience AG, priority 2007, dated 2012).

In general, LogP refers to the decadic logarithm of the partition coefficient of the neutral form, usually between octanol and water. A low value points to lower lipophilicity.

One data set in a line: logP by HPLC on reversed-phase column (C 18), EEC Directive 79/831 Annex V.A8. Format: physicochemical. The conditions noted are these: 40° C., 0.1% aqueous formic acid and acetonitrile, linear gradient 10% to 90% acetonitrile. As to the method:
In the following table, the logP values were determined in accordance with EEC Directive 79/831 Annex V.A8 by HPLC (High Performance Liquid Chromatography) on a reversed-phase column (C 18), using the method described below: Temperature: 40° C.; Mobile phases: 0.1% aqueous formic acid and acetonitrile linear gradient from 10% acetonitrile to 90% acetonitrile. Calibration was carried out using unbranched alkan-2-ones (comprising 3 to 16 carbon atoms) with known logP values (determination of the logP values by the retention times using linear interpolation between two successive alkanones).
Molecule `Cc1nn(C)c(F)c1C(=O)N(Cc1ccc(Br)c2cccnc12)C1CC1` [Example 167] returned a LogP of 2.9. On the same count and under the same terms, then `COc1ccc2ccc(OC)c(CN(C(=O)c3c(C)nn(C)c3F)C3CC3)c2c1` [Example 222], with 2.96.

The data set is the same for the next values; noted with them: 40° C., 0.1% aqueous formic acid and acetonitrile, linear gradient from 10% to 90% acetonitrile.
Molecule `COc1nn(C)cc1C(=O)N(C1CC1)C(C)c1cccc2ccccc12` (stereo not shown) [Example 75] registered a LogP of 2.86.

Regarding `Cc1nn(C)c(F)c1C(=O)N(Cc1ccc(Br)c2ccccc12)C1CC1` [Example 54], the LogP is reported as 3.62.

Regarding `Cn1cc(C(=O)N(Cc2ccc3ccccc3c2Br)C2CC2)c(C(F)F)n1` [Example 26], the log partition coefficient (LogP) stood at 3.68. On the same count and under the same terms, then `Cc1nn(C)c(F)c1C(=S)N(Cc1ccc2ccccc2c1Br)C1CC1` [Example 25], with 4.39. The same measure, in the same setting: then `COC(=O)C(c1cccc2ccccc12)N(C(=O)c1cn(C)nc1C(F)F)C1CC1` (stereo not shown) [Example 69], with 3.02; and `Cn1cc(C(=O)N(Cc2ccc(Br)c3ccccc23)C2CC2)c(C(F)F)n1` [Example 55], with 3.69; and `Cc1cc(C(=O)N(C2CC2)C(C)c2ccc(Br)c3ccccc23)c(C)o1` (stereo not shown) [Example 60], with 5.2. The molecule `COc1nn(C)cc1C(=O)N(Cc1ccc2ccccc2c1Br)C1CC1` [Example 27] showed a lipophilicity (LogP) of 3.24. On the same count and under the same terms, next, `COC(=O)C(c1cccc2ccccc12)N(C(=O)c1c(C)nn(C)c1F)C1CC1` (stereo not shown) [Example 63]: 2.92. On the same count and under the same terms, next, `COc1nn(C)cc1C(=S)N(Cc1ccc2ccccc2c1Br)C1CC1` [Example 28]: 4.25; `Cc1ccc2ccccc2c1CN(C(=O)c1cn(C)nc1C(F)F)C1CC1` [Example 40]: 3.25.
